From US6858640B2, “Tricyclic indole compounds having affinity for serotonin receptor” (Shionogi & Co., Ltd., priority 2000, dated 2005) come the findings set out here.

In one series the target is T1, 5HT1A (Rattus norvegicus, UniProt P19327).
T1 construct: prepared from brain of rats or HEK293 cells, which expressed the receptor; from tissue; host or cells: rat brain membranes
T1 sequence (P19327 1-422): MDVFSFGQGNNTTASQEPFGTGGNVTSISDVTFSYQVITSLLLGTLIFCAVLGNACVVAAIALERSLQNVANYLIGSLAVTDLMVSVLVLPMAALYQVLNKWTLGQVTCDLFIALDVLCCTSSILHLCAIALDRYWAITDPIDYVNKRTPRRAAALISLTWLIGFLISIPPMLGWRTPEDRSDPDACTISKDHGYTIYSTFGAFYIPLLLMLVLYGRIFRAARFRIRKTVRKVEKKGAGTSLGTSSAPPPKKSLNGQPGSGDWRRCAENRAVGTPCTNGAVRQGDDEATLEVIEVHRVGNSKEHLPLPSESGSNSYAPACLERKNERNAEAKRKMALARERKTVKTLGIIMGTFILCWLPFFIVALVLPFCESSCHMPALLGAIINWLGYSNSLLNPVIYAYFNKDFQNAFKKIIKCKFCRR
Briefly: radioligand binding to serotonin receptor, cell membrane sample, Ki by Cheng-Prusoff. As for the experimental part:
(§1) A mixture of radioactive ligands and some cardinal numbers of test compounds was incubated with a sample of cell membrane, which was prepared from brain of rats or HEK293 cells, which expressed the receptor, under the following conditions. Then, the sample was filtered by suction on a Whatman GF/C. Radioactivity on the filter was encountered by the use of a liquid scintillation counter. 50% Inhibitory concentration values (IC50 values) of each selective binding were calculated for test compounds and the Ki value was obtained by applying an equation of Cheng-Prusoff [Biochem. Pharmacol. 22 (1973) 3099-3108] Ki=IC50/(1+[L]/Kd).

A further series has as its target T2, 5HT6 (Homo sapiens, UniProt P50406).
T2 construct: expressed in transfected cells; host or cells: HEK293
Briefly: radioligand binding to serotonin receptor, cell membrane sample, Ki by Cheng-Prusoff. As for the experimental part: as §1

A further series addresses 5HT7 (Homo sapiens, UniProt P34969). Described as above. On the procedure: as §1
Where [1] appears, read: rat hippocampus membranes, 1 nM [3H] 8-OH-DPAT, 25° C. 30 min, read-out: Ki value (nM) ±SE 5-HT1A.
The mark [2] stands for this setting: Human 5-HT7 (HEK293), 0.5 nM [3H] 5CT, 25° C. 120 min, read-out: Ki value (nM) ±SE 5-HT7.

Where two headings read alike, the source gives them in different places.

Sequence of 5HT7 (P34969 whole entry, species assumed): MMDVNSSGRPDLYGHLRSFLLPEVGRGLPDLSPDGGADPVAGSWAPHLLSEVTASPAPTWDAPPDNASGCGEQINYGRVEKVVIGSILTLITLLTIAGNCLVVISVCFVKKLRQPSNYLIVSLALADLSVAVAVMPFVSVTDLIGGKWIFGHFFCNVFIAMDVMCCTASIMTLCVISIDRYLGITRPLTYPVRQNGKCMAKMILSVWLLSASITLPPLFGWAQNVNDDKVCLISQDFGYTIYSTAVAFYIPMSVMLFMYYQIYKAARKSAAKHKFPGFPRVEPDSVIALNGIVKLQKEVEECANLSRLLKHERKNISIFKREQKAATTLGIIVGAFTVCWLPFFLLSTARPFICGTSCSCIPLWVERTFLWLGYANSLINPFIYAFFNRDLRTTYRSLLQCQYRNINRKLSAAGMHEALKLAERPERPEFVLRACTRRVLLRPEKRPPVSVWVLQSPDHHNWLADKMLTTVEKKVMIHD
T2 sequence (P50406 whole entry, species assumed): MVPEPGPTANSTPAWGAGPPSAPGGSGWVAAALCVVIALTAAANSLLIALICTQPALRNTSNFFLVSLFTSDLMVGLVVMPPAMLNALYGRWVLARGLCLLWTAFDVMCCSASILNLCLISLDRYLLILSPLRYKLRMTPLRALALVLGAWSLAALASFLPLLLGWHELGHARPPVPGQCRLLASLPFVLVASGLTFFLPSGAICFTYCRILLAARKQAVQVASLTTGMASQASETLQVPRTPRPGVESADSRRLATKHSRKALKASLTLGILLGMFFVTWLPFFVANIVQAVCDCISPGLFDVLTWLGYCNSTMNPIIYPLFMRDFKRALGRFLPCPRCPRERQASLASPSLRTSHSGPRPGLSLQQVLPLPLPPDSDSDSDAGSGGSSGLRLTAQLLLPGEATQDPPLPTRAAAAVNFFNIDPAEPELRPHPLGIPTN

Consider `NC1COc2cccc3[nH]cc(c23)C1` (stereo not drawn) [Compound 8-1, 2,7,8,9-Tetrahydro-6-oxa-2-azabenzo[c,d]azulen-8-ylamine], for which the melting point (in general, the temperature, or range, at which the solid turns liquid) fell in the range of 172 to 173 °C. The inhibitory constant (Ki) – broadly, a dissociation constant, usually derived from enzyme kinetics or from competition with a known ligand – on 5HT1A (setting [1]) was determined as 36 nM.

For the compound `CN(C)C1CC(=O)c2cccc3[nH]cc(c23)C1` (stereo not drawn) [Compound 19-1, Dimethyl-(2,7,8,9-tetrahydro-6-oxo-2-azabenzo[cd]azulen-8-yl)amine], the Ki at 5HT1A (setting [1]) worked out at 81 nM.

Take `CNC1COc2cccc3[nH]cc(c23)C1` (stereo not drawn) [Compound 19-2]: the figures for the inhibition constant Ki at 5HT1A and at 5HT6 were 23 nM and 97 nM, respectively.

In the case of `CCCNC1COc2cccc3[nH]cc(c23)C1` (stereo not drawn) [Compound 19-3], the melting point was in the range of 137 to 139 °C. This compound had an inhibition constant Ki at 5HT1A of 5.7 nM. On 5HT7, the affinity corresponds to a Ki of 46 nM.

Regarding `CCCN(CCC)C1COc2cccc3[nH]cc(c23)C1` (stereo not drawn) [Compound 19-5], the melting point was 60 to 61 °C. Also, the inhibitory constant (Ki) on 5HT1A turned out to be 10 nM.

The compound `C=CCNC1COc2cccc3[nH]cc(c23)C1` (stereo not drawn) [Compound 19-7] showed a melting point of 112 to 113 °C. Further, the inhibition constant Ki on 5HT1A was determined as 19 nM.

On to `c1cc2c3c(c[nH]c3c1)CC(N1CCCC1)CO2` (stereo not drawn) [Compound 19-10], for which the melting point lay in the range of 137 to 139 °C. This compound showed a Ki at 5HT1A of 2.5 nM.

`CNC1COc2c(Br)ccc3[nH]cc(c23)C1` (stereo not drawn) [Compound 19-15]: the values for the Ki at 5HT1A, at 5HT6 and at 5HT7 were 7.7 nM, 4.6 nM and 16 nM, respectively.

Regarding `CN(C)C1COc2c(Br)ccc3[nH]cc(c23)C1` (stereo not drawn) [Compound 19-16], the melting point was in the range of 142 to 143 °C. The Ki on 5HT1A is 58 nM. Besides, the affinity on 5HT6, expressed as Ki, was 62 nM. On 5HT7, this compound registered a Ki of 86 nM.

The compound `c1cc2c3c(c[nH]c3c1)CC(NC1CC1)CO2` (stereo not drawn) [Compound 19-19] displayed a melting point of 130 to 131 °C. For the same compound, the inhibition constant (Ki) on 5HT1A was found to be 3.8 nM.

Take `CN(C)C1COc2cccc3c2c(cn3S(=O)(=O)c2cccs2)C1` (stereo not drawn) [Compound 20-9]: the Ki is 86 nM on 5HT1A and 78 nM on 5HT6.

Turning to `CN(C)C1COc2cccc3c2c(cn3S(=O)(=O)c2ccc(C(F)(F)F)cc2)C1` (stereo not drawn) [Compound 20-10], the Ki on 5HT1A amounted to 95 nM; on 5HT6 it was 45 nM.

For the compound `CN(C)C1COc2cccc3[nH]c(Br)c(c23)C1` (stereo not drawn) [Compound 21, (1-Bromo-2,7,8,9-tetrahydro-6-oxa-2-azabenzo[cd]azulen-8-yl)dimethylamine], the melting point lay within 170 to 172 °C. The Ki at 5HT1A (setting [1]) was found to be 14 nM.

As for `O=S(=O)(c1ccccc1)n1cc2c3c(cccc31)OCC(N1CCCC1)C2` (stereo not drawn) [Compound 36-1, 2-Benzenesulfonyl-8-pyrrolidin-1-yl-2,7,8,9-tetrahydro-6-oxa-2-azabenzo[cd]azulene], the Ki is 29 nM on 5HT1A (setting [1]) and 65 nM at 5HT6.

As for `CCN(CC)C1COc2cccc3c2c(cn3S(=O)(=O)c2ccccc2)C1` (stereo not drawn) [Compound 36-3], the melting point fell in the range of 106 to 108 °C. The Ki on 5HT1A (setting [1]) is 58 nM. The compound further came in with a Ki on 5HT6 of 4.2 nM.

`CN(C)C1COc2c(-c3ccccc3)ccc3[nH]cc(c23)C1` (stereo not drawn) [Compound 38, Dimethyl-(5-phenyl-2,7,8,9-tetrahydro-6-oxa-2-azabenzo[cd]azulen-8-yl)amine] showed a melting point of 168 to 170 °C. Further, the inhibition constant (Ki) on 5HT1A (setting [1]) worked out at 83 nM. In addition, the inhibitory constant (Ki) at 5HT7 (setting [2]) was found to be 22 nM.

On to `COC(=O)/C=C/c1ccc2[nH]cc3c2c1OCC(N(C)C)C3` (stereo not drawn) [Compound 39, (E)-3-(8-Dimethylamino-2,7,8,9-tetrahydro-6-oxa-2-azabenzo[cd]azulen-5-yl)acrylic acid methyl ester], for which the Ki on 5HT1A (setting [1]) worked out at 27 nM; on 5HT7 (setting [2]) it was 73 nM.

On to `C=Cc1ccc2[nH]cc3c2c1OCC(N(C)C)C3` (stereo not drawn) [Compound 40, Dimethyl-(5-vinyl-2,7,8,9-tetrahydro-6-oxa-2-azabenzo[cd]azulen-8-yl)amine], for which the Ki at 5HT1A (setting [1]) worked out at 15 nM; at 5HT6 it was 32 nM; on 5HT7 (setting [2]) it was 74 nM.

For the compound `CCc1ccc2[nH]cc3c2c1OCC(N(C)C)C3` (stereo not drawn) [Compound 41, (5-Ethyl-2,7,8,9-tetrahydro-6-oxa-2-azabenzo[cd]azulen-8-yl)dimethylamine], the inhibition constant (Ki) on 5HT1A (setting [1]) was 57 nM.

`CSc1ccc2[nH]cc3c2c1OCC(N(C)C)C3` (stereo not drawn) [Compound 46-3] showed a melting point of 112 to 113 °C. For the same compound, on 5HT1A, the Ki amounted to 18 nM.
